Results published in US6242494A, “Substituted β-amino acid inhibitors of methionine aminopeptidase-2” (Abbott Laboratories, priority 1999, dated 2001).
Counter-ions that a name gives are not always drawn. Like-named read-outs stand apart in the source and are kept apart here.

Key:
[1] = target: T1, methionine aminopeptidase-2 (MetAP2) (Homo sapiens, UniProt P50579); experiment: Inhibition of MetAP2 enzyme activity (96-well, Met-Ala-Ser substrate, L-amino acid oxidase/peroxidase/ortho-dianisidine, 450 nm); format: biochemical; settings: pH 7.4, Met-Ala-Ser substrate, 20 minutes
T1 construct: made in house; host or cells: insect cells, baculovirus system (secreted, purified from culture supernatant)
T1 sequence (P50579 whole entry): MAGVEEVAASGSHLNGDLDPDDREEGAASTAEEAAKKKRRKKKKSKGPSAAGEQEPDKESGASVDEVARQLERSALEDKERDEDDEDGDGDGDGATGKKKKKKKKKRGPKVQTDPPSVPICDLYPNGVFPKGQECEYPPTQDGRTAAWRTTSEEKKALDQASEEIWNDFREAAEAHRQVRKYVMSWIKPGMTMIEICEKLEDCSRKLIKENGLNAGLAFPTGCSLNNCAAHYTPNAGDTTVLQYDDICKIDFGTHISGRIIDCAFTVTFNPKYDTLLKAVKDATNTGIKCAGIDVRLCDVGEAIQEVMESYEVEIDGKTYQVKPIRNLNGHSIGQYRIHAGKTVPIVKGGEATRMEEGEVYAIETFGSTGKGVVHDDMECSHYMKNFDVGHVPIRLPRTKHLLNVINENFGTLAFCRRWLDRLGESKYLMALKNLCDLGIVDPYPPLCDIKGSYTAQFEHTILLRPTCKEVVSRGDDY

angiogenesis = settings: cited from earlier work; for inhibition of angiogenesis: result in words
[2] = test system: type 2 methionine aminopeptidase, MetAP2; settings: result in words; cited from earlier work
endothelial cell cycle = settings: late G1 phase; result in words; cited from earlier work
MetAP2 = settings: result in words; cited from earlier work
[3] = IC50, recombinant MetAP2 4 μg/mL
[4] = recombinant MetAP2 4 μg/mL, read-out: IC50

| Compound | IC50 [1, 3] [µM] | also measured |
| --- | --- | --- |
| C[C@H](NC(=O)C(O)[C@H](N)CC1CCCCC1)C(=O)OCc1ccc(CC(=O)OCC(=O)c2ccccc2)cc1 (stereo partly drawn) [Example 96, (2RS,3R)-3-Amino-2-hydroxy-4-cyclohexyl)butanoyl-L-alanine-(4-(methyl)phenyl Acetic Acid Phenacyl Ester) Hydrochloride] | 2.9 | – |
| N[C@H](CC1CCCCC1)C(O)C(=O)NCc1ccc(Cl)cc1Cl (stereo partly drawn) [Example 97, (2RS,3R)-3-Amino-4-cyclohexyl)-N-(2,4-dichlorobenzyl)-2-hydroxybutanamide Hydrochloride] | 3 | – |
| CC(NC(=O)C(O)[C@H](N)CC1CCCCC1)c1cccc2ccccc12 (stereo partly drawn) [Example 101, (2RS,3R,1'RS)-3-Amino-4-cyclohexyl-2-hydroxy-N-(1-(1-naphthyl)ethyl)butanamide Hydrochloride] | 0.31 | – |
| C[C@H](NC(=O)C(O)[C@H](N)Cc1ccccc1)C(=O)OCc1ccccc1 (stereo partly shown) [Example 105, Hydrochloride] | 19 | – |
| CCCC[C@H](NC(=O)C(O)[C@H](N)CC1CCCCC1)C(=O)OC (stereo partly drawn) [Example 129, methyl (2RS,3R,2'S)-2-((3-amino-4-cyclohexyl-2-hydroxybutanoyl)amino)hexanoate hydrochloride] | – | IC50 ([1]; recombinant MetAP2 4 μg/mL): 27 µM |
| CCOC(=O)[C@H](CF)NC(=O)C(O)[C@H](N)CC1CCCCC1 (stereo partly drawn) [Example 135, ethyl (2RS,3R,2'R)-2-((3-amino-4-cyclohexyl-2-hydroxybutanoyl)amino)-3-fluoropropanoate trifluoroacetate] | 3.2 | – |
| CC(C)(C)c1ccc(COC(=O)[C@@H](CO)NC(=O)C(O)[C@H](N)CC2CCCCC2)cc1 (stereo partly drawn) [Example 137, 4-(tert-butyl)benzyl (2RS,3R,2'R)-2-((3-amino-4-cyclohexyl-2-hydroxybutanoyl)amino-3-hydroxypropanoate trifluoroacetate] | 8.4 | – |
| N[C@H](CC1CCCCC1)C(O)C(=O)N[C@@H](CO)C(=O)OCc1ccc([N+](=O)[O-])cc1 (stereo partly drawn) [Example 138, 4-nitrobenzyl (2RS,3R,2'S)-2-((3-amino-4-cyclohexyl-2-hydroxybutanoyl)amino-3-hydroxypropanoate trifluoroacetate] | 1.6 | – |
| N[C@H](CC1CCCCC1)C(O)C(=O)N[C@@H](CO)C(=O)OCc1cccc([N+](=O)[O-])c1 (stereo partly drawn) [Example 139, 3-nitrobenzyl (2RS,3R,2'S)-2-((3-amino-4-cyclohexyl-2-hydroxybutanoyl)amino)-3-hydroxypropanoate trifluoroacetate] | 1.7 | – |
| N[C@H](CC1CCCCC1)C(O)C(=O)N[C@@H](CO)C(=O)OCc1ccc(C(F)(F)F)cc1 (stereo partly drawn) [Example 140, 4-(trifluoromethyl)benzyl (2RS,3R,2'S)-2-((3-amino-4-cyclohexyl-2-hydroxybutanoyl)amino)-3-hydroxypropanoate trifluoroacetate] | 2.2 | – |
| N[C@H](CC1CCCCC1)C(O)C(=O)N[C@@H](CO)C(=O)OCc1cccc(OC(F)(F)F)c1 (stereo partly drawn) [Example 141, 3-(trifluoromethoxy)benzyl (2RS,3R,2'S)-2-((3-amino-4-cyclohexyl-2-hydroxybutanoyl)amino)-3-hydropropanoate trifluoroacetate] | 3.7 | – |
| CC(C)(C)c1ccc(NC(=O)C(O)[C@H](N)CC2CCCCC2)cc1 (stereo partly shown) [Example 150] | 3.1 | – |
| CC(C)(C)c1ccc(CNC(=O)C(O)[C@H](N)CC2CCCCC2)cc1 (stereo partly drawn) [Example 156, (2RS,3R)-3-amino-N-(4-tert-butyl)benzyl-4-cyclohexyl-2-hydroxybutanamide] | 3.9 | – |
| N[C@H](CC1CCCCC1)C(O)C(=O)NCc1cccc(C(F)(F)F)c1 (stereo partly shown) [Example 157] | 1.6 | – |
| N[C@H](CC1CCCCC1)C(O)C(=O)NCCc1c(Cl)cccc1Cl (stereo partly drawn) [Example 165, (2RS,3R)-3-amino-4-cyclohexyl-N-(2,6-dichlorophenethyl)-2-hydroxybutanamidehydrochloride] | 0.26 | – |
| N[C@H](CC1CCCCC1)C(O)C(=O)Nc1ccccc1OC(F)(F)F (stereo partly drawn) [Example 169, (2RS,3R)-3-amino-4-cyclohexyl-2-hydroxy-N-(2-(trifluoromethoxy)phenyl)butanamide hydrochlordie] | 3.3 | – |
| CC(C)CCCC(C)NC(=O)C(O)[C@H](N)CC1CCCCC1 (stereo partly drawn) [Example 211, (2RS,3R)-3-amino-4-cyclohexyl-N-(1.5-dimethylhexyl)-2-hydroxybutanamide Hydrochloride] | 2.4 | – |
| N[C@H](CC1CCCCC1)C(O)C(=O)NCc1cccc2ccccc12 (stereo partly drawn) [Example 235, (2RS,3R)-3-amino-4-cyclohexyl-2-hydroxy-N-(1-napthylmethyl)butanamide Hydrochloride] | 0.97 | – |
| CO[C@@H]1[C@H](OC(=O)NC(=O)CCl)CC[C@]2(CO2)[C@H]1[C@@]1(C)O[C@@H]1CC=C(C)C [TNP-470, O-(chloroacetylcarbamoyl)fumagillol] | – | potency as angiogenesis inhibitor relative to natural precursor fumagillin (angiogenesis; more potent than fumagillin): 50 fold; inhibition of angiogenesis (angiogenesis): potent inhibitors of angiogenesis; binding to MetAP2 [2]: bind to a common bifunctional protein, type 2 methionine aminopeptidase, MetAP2; inhibition of neovascularization by arresting the endothelial cell cycle (endothelial cell cycle): effective in inhibiting neovacularization by arresting the endothelial cell cycle in the late G1 phase; mode of MetAP2 inhibition (MetAP2): irreversible inhibitors |
| CO[C@@H]1[C@H](OC(=O)/C=C/C=C/C=C/C=C/C(=O)O)CC[C@]2(CO2)[C@H]1[C@@]1(C)O[C@@H]1CC=C(C)C [fumagillin] | – | inhibition of angiogenesis (angiogenesis): potent inhibitors of angiogenesis; inhibition of neovascularization by arresting the endothelial cell cycle (endothelial cell cycle): effective in inhibiting neovacularization by arresting the endothelial cell cycle in the late G1 phase; mode of MetAP2 inhibition (MetAP2): irreversible inhibitors |
| (2RS,3R)-3-Amino-2-hydroxy-4-cyclohexyl)butanoyl-L-alanine Cyclopropyl Ester Hydrochloride [Example 92] | – | IC50 [1, 4]: 1.4 µM |
| (((2RS,3R)-3-amino-4cyclohexyl-2-hydroxybutanoyl)amino)(2,5-dimethoxybenzyl)chloronium hydrochloride [Example 163] | – | IC50 [1, 4]: 0.48 µM |
